Results as given in patent publication EP4458977A1, “SELF-ASSEMBLING PEPTIDE AMPHIPHILES AS RETROVIRAL TRANSDUCTION ENHANCERS” (Max-Planck-Gesellschaft zur Förderung der Wissenschaften …, priority 2023, dated 2024).
“Also recorded” adds a separate entry of the source. Where a SMILES comes first, the peptide text is derived from it. Where no end group is shown, it is not given here. [ ]: non-standard residue; d: D form. The star is where a group is joined. Palmitoyl = CCCCCCCCCCCCCCCC(=O)*

Key:
[1] = ATR-FT-IR determination of β-sheet content; type: physicochemical; conditions: 1 mg/mL in PBS lyophilized; integral at 1630 cm^-1 relative to 1650-1700 cm^-1
Method: ATR-FT-IR: ATR-IR spectra acquisition and the calculation of β-sheet content were conducted according prior art procedures. Briefly, FT-IR spectra of solid samples were recorded after lyophilization of fibril solutions using a Bruker Tensor II spectrometer equipped with a diamond crystal as ATR element with a spectral resolution of 2 cm^-1, each spectrum was an average of 64 scans. The data was processed with Origin software. β-sheet amount was determined by calculating the integral of the peak at 1630 cm-1 (β-sheet) relative to the integral between 1650-1700 cm-1 (native structure) from the 2nd derivative of the FT-IR spectra.

[2] = TEM of peptide assemblies (fibril formation / assembly); type: physicochemical; conditions: for TEM morphology (in words): 1 mg/mL in PBS; for Assembly without hydrophob residue: corresponding peptide without hydrophobic moiety; for Assembly: peptide amphiphile
Method: The peptides were predissolved in DMSO to a concentration of 10 mg/mL. The fibril formation was induced by further diluting the solution to a final incubation concentration of 650 µM or 1 mg/mL in PBS as indicated in the text and incubated for 1 d (1 day) at rt (room temperature, 20 °C - 25 °C). Other concentrations as described herein were achieved by further dilution of preformed fibrils.
(§1) Transmission electron microscopy (TEM) measurements, Thioflavin (ThT), zeta-potential measurements for fibril characterization were prepared and conducted according to prior art procedures. […] Fibrils were defined as distinct, if no visible structures could be identified in fluorescence and brightfield microscopy.

HeLa cells = assay: Confocal laser scanning microscopy and degradation study with PA library and HeLa cells; type: cell-based; conditions: for association with cellular membranes: 2 µg added to 20.000 HeLa cells, 30 min
Method: In general, the procedure for determine whether a PA is degraded or not, is conducted by confocal laser scanning microscopy of Proteostat stained PAs which are added to Hela cells (2 µg peptide added to 20.000 cells). Microscopy is conducted at day 0 (d0, after 30 min of incubation) and at day 3 (d3, after 72 h of incubation). The number of aggregates >10 µm^2 is counted via 3D object counter in imaged in an area of 1008 µm × 1008 µm.
A PA is considered to be degradable if the number and the size of aggregates are reduced after 3 days. The efficiency is determined by the percentual degradation (aggregate number at d3 / aggregate number at d0). For the number of aggregation three technical replicates were evaluated for each sample. A large deviation represents a nonhomogeneous spatial distribution of aggregates.
Confocal laser scanning microscopy and degradation study with PA library and HeLa cells: Confocal laser scanning microscopy studies were performed for the visualization of the cell-PA interaction. HeLa cells were seeded one day prior to conducting the assay (20,000/well) in an 8-well IBIDI slide. […] The nucleus of the HeLa cells was stained with Hoechst 33342 (NucBlue™, Thermo Fisher Scientific). The peptide solution mixture was transferred to the HeLa cells and incubated for 30 min at 37°C before washing three times with PBS. […] For the evaluation of aggregate degradation, the samples were further incubated at 37°C for 3 d and analyzed without any additional washing step. […] The number of aggregates were determined by counting aggregates larger than the threshold 10 µm^2 in an area of 1008 × 1008 µm and repeated in three technical triplicates.

[3] = Fluorescence microscopy of ThT-stained fibrils (µm-sized aggregates); type: physicochemical; conditions: 1 mg/mL stained with 50 µM ThT
Method: as §1
Fluorescence microscopy: 1 µL Fibrils (1 mg mL^-1) were stained with 9 µL, 50 µM ThT. 10 µL of the stained fibrils (0.1 mg mL^-1) were placed on a microscopy glass. Fluorescence microscopy measurements were performed on a Leica DMi8 microscope with 10x air objective and equipped with a Leica MC170 HD camera with a filter setting λem = 527/30 nm upon excitation at λex = 480/40 nm) and processed with the Leica LASX software.

HIV-1 = conditions: for Infectivity enhancing N fold at 1.3 µM: relative to virus only; for enhancement of HIV-1 infection / transduction (in words): 6.5 µM, 1.3 µM, 0.26 µM;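 as to all read-outs here: TZM-bl reporter cells exposed to HIV-1 with peptide fibrils, infection read out as β-galactosidase luminescence, compared with virus alone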
Method: HIV-1 Infection Assay with TZM-bl cells: The effect of peptide fibrils on HIV-1 infection was studied via a luminescence assay for β-galactosidase, which was reported by TZM-bl cells upon infection. The HIV-1 infection assay was conducted in three technical replicates and repeated in three independent experiments unless stated otherwise.

Molecule	β-sheet amount [1]	TEM morphology (in words) [2]	fluorescent, µm-sized aggregates (ThT staining) [3]	infectivity enhancement at 1.3 µM concentration compared to virus only infection (in words) (HIV-1)	enhancement of HIV-1 infection / transduction (in words) (HIV-1)	other results
CCCCCCCCCCCCCCCC(=O)N[C@@H](C(=O)N[C@@H](C(=O)N[C@@H](C(=O)N[C@H](C)C(=O)N[C@H](C)C(=O)N[C@H](C)C(=O)N[C@H](CCCCN)C(=O)N[C@H](CCCCN)C(=O)N[C@H](CCCCN)C(N)=O)C(C)C)C(C)C)C(C)C [Pat14, C16-vvvaaakkk-NH2] (Palmitoyl-[dV][dV][dV][dA][dA][dA][dK][dK][dK]-NH2)	49%	fibrillar morphologies	fluorescent, µm-sized aggregates			Assembly without hydrophob residue [2]: No; Assembly [2]: Yes; association with cellular membranes (HeLa cells): association with cellular membranes; degradability (in words) (HeLa cells; HeLa cells, 3 days): is not degraded; also recorded: cannot be degraded; also recorded: non-degradable PA; Degradability / % (rel. to initial particles > 10 µm^2) (HeLa cells; HeLa cells, 3 d relative to 30 min): -116%; aggregate number increases (HeLa cells; d3 relative to d0): 116%; enhances infectivity at 1.3 µM concentration, times more efficient compared to virus only infection (HIV-1): 7 times; Infectivity enhancing N fold at 1.3 µM (HIV-1): 7±1 N fold
CCCCCCCCCCCCCCCC(=O)N[C@@H](CCCNC(=N)N)C(=O)N[C@@H](CCCNC(=N)N)C(=O)N[C@@H](Cc1c[nH]c2ccccc12)C(=O)N[C@@H](CCC(N)=O)C(=O)N[C@@H](Cc1c[nH]c2ccccc12)C(=O)N[C@@H](CCCNC(=N)N)C(N)=O [Pat22, C16-RRWQWR-NH2] (Palmitoyl-RRWQWR-NH2)	0%	fibrillar morphologies		does not enhance infectivity	no infectivity enhancement can be observed	Assembly without hydrophob residue [2]: No; Assembly [2]: Yes; association with cellular membranes (HeLa cells): no association with cellular membranes; Infectivity enhancing N fold at 1.3 µM (HIV-1): 0±0 N fold
CC(C)[C@@H](N)C(=O)N[C@@H](C(=O)N[C@@H](C(=O)N[C@H](C)C(=O)N[C@H](C)C(=O)N[C@H](C)C(=O)N[C@H](CCCCN)C(=O)N[C@H](CCCCN)C(=O)N[C@H](CCCCN)C(N)=O)C(C)C)C(C)C [Pat33, vvvaaakkk-NH2] (H-[dV][dV][dV][dA][dA][dA][dK][dK][dK]-NH2)	45%	no fibrillar morphologies but amorphous aggregates	no fluorescent, µm-sized aggregates	cannot enhance infectivity		
AGGRVK-NH2 [Pat37, AGGRVK-NH2]	0%	no fibrillar morphologies	no fluorescent, µm-sized aggregates	cannot enhance infectivity		
AKAVGK-NH2 [Pat50, AKAVGK-NH2]	33%	no fibrillar morphologies but amorphous aggregates	no fluorescent, µm-sized aggregates	cannot enhance infectivity		
ALAAGKK-NH2 [Pat39, ALAAGKK-NH2]	0%	no fibrillar morphologies	no fluorescent, µm-sized aggregates	cannot enhance infectivity		
AQAKAK-NH2 [Pat35, AQAKAK-NH2]	29%	no fibrillar morphologies but amorphous aggregates	no fluorescent, µm-sized aggregates	cannot enhance infectivity		
AVAKKK-NH2 [Pat40, AVAKKK-NH2]	29%	no fibrillar morphologies but amorphous aggregates	no fluorescent, µm-sized aggregates	cannot enhance infectivity		
GGGSSKKK-NH2 [Pat47]	10%	no fibrillar morphologies	no fluorescent, µm-sized aggregates		not potent enhancers of HIV-1 infection	
GKVGSK-NH2 [Pat49, GKVGSK-NH2]	4%	no fibrillar morphologies	no fluorescent, µm-sized aggregates		not potent enhancers of HIV-1 infection	
IIQKIK-NH2 [Pat34, IIQKIK-NH2]	31%	no fibrillar morphologies	no fluorescent, µm-sized aggregates		not potent enhancers of HIV-1 infection	
KGVPGVGK-NH2 [Pat44]	22%	fibrillar morphologies		do not enhance infectivity		TEM morphology (in words) ([2]; listed as KGVPGVGK): unexpectedly forming fibrils by themselves
KIISFK-NH2 [Pat51, KIISFK-NH2]	38%	no fibrillar morphologies	no fluorescent, µm-sized aggregates		not potent enhancers of HIV-1 infection	
KYIHQNYTKALAGKLV-NH2 [Pat45]	34%	no fibrillar morphologies	no fluorescent, µm-sized aggregates		not potent enhancers of HIV-1 infection	
LLLKK-NH2 [Pat42, LLLKK-NH2]	33%	no fibrillar morphologies	no fluorescent, µm-sized aggregates	cannot enhance infectivity		
LNGGVKK-NH2 [Pat38, LNGGVKK-NH2]	0%	no fibrillar morphologies	no fluorescent, µm-sized aggregates		not potent enhancers of HIV-1 infection	
RRWQWR-NH2 [Pat41, RRWQWR-NH2]	0%	amorphous aggregates		cannot enhance infectivity		association with cellular membranes (HeLa cells): no association with cellular membranes
VVAAHHH-NH2 [Pat43, VVAAHHH-NH2]	0%	no fibrillar morphologies	no fluorescent, µm-sized aggregates		not potent enhancers of HIV-1 infection	
WEALKK-NH2 [Pat36, WEALKK-NH2]	31%	no fibrillar morphologies but amorphous aggregates	no fluorescent, µm-sized aggregates	cannot enhance infectivity		
